Reference: ChEMBL document CHEMBL1201862, “PubChem BioAssay data set” (2004)
Calls of active or inactive are those of the source.

Tests used:
[1] = HEK293T cytotoxicity, dose response, cytotoxicity control for miR-122 modulator project, cell-based, inhibitor set, cherry-pick, set 2 (AID 720697); format: functional
[2] = target: Disintegrin and metalloproteinase domain-containing protein 17 (Homo sapiens, UniProt P78536); experiment: ADAM17 protease inhibitors, dose response, counter-screen for ADAM10 exosite inhibitor project, biochemical, quenched FRET substrate (AID 743253)
[3] = cells; format: functional, cell-based
[4] = cells; format: functional, cell-based; remark: listed apart in the source
[5] = ADAM10 inhibitors, peptide cleavage, dose response, biochemical, QFRET (AID 743254);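 note: ADAM10 enzyme with the DM2 quenched FRET peptide as substrate; EDANS fluorescence gain as the protease cuts the substrate; inhibitor potency against ADAM10 proteolytic activity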
[6] = HEK293T cytotoxicity, dose response, cytotoxicity control for miR-122 modulator project, cell-based, activator set, cherry-pick (AID 720690); format: functional;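 note: HEK293T human cells scored for general mammalian cytotoxicity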
[7] = miR-122 activators in hepatoma reporter cells, dose response, cell-based, Huh7 psiCHECK-miR122, Renilla luciferase, cherry-picked (AID 651956); format: functional;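 note: huh7 hepatoma cells stably carrying a psiCHECK-2 miR-122 sensor plasmid; renilla luciferase signal reporting endogenous miR-122 activity after 48 h compound exposure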
[8] = target: Paired box protein Pax-8 (Homo sapiens, UniProt Q06710); experiment: inhibitors of PAX8-driven TPO luciferase reporter, dose response, RMG-I cells, cherry-pick (AID 687027); format: functional, cell-based;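 note: luciferase reporter driven by Pax8 target thyroperoxidase promoter measured by SteadyGlo luminescence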
[9] = LGR2 antagonists, dose response, cell-based, HEK293, CRE-luciferase reporter, cherry pick (AID 743342); format: functional
[10] = inhibitors of CMV-promoter luciferase reporter, dose response, counter-screen for Pax8 inhibitor project, cell-based, HEK293, luminescence, dry powder (AID 743020); format: functional
[11] = NIH:OVCAR-3 ovarian cancer cell cytotoxicity, dose response, PAX8 inhibitor project, plate reader, dry powder samples (AID 743044); format: functional, cell-based
[12] = cytotoxicity in OVCAR8 ovarian cancer cells, dose response, PAX8 project, cell-based, plate reader, dry powder samples (AID 743197); format: functional; details: OVCAR-8
[13] = IGROV1 ovarian cancer cell cytotoxicity, dose response, PAX8 inhibitor project, plate reader, dry powder samples (AID 743043); format: functional, cell-based; details: IGROV-1
[14] = target: T1, Caspase-3 (Homo sapiens, UniProt P42574); format: functional;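 note: Dose-response selectivity test against caspase-3 for candidate inhibitors of sentrin-specific proteases (SENPs)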
T1 sequence (P42574 whole entry): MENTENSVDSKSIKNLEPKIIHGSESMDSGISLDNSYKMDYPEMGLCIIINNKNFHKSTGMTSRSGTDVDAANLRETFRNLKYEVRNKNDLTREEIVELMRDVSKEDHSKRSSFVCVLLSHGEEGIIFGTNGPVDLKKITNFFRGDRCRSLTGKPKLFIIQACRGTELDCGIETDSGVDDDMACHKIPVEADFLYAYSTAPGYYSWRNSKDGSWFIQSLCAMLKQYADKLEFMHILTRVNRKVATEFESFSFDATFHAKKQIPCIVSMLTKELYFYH

[15] = cytotoxicity toward DRD oncogenic fibroblasts, dose response, cell-based, non-viral oncogenic, luminescence (AID 1934); format: functional; details: Homo sapiens
[16] = tested on: INS1; experiment: beta cell apoptosis inhibitors, cytokine rescue, dose response, luminescence, retest (AID 449756); format: functional, cell-based; details: Rattus norvegicus;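 note: cell death triggered by IL-1 beta plus TNF-alpha plus IFN-gamma mixture; protective hits raise ATP signal compared with cytokine alone wells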
[17] = tested on: BJ; experiment: cytotoxicity toward BJ-TERT-LT-ST fibroblasts, dose response, cell-based, RAS-independent, luminescence (AID 1935); format: functional; details: Homo sapiens;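 note: BJ fibroblasts immortalized with TERT plus LT and ST oncogenes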
[18] = cytotoxicity toward NIH3T3 fibroblasts, dose response, counter-screen, cell-based, ATP luminescence, mouse fibroblasts (AID 2010); format: functional;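 note: cells exposed to compound for about 90 hours before reading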
[19] = target: Luciferin 4-monooxygenase (Photinus pyralis, UniProt P08659); experiment: firefly luciferase enzyme inhibitors, dose response, biochemical, luminescence (AID 1891)
[20] = inhibitors of intracellular T. cruzi replication, confirmation, NIH3T3 host cells, beta-gal luminescence (AID 2044); format: functional, cell-based;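 note: intracellular parasites grown in NIH/3T3 mouse fibroblasts as host cells; luminescent beta-galactosidase reporter signal from transgenic T. cruzi replicating inside host cells; inhibitors lower the luminescence signal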
[21] = tested on: BJ; experiment: cytotoxicity toward BJ-TERT fibroblasts, dose response, cell-based, RAS-independent, luminescence (AID 1933); format: functional; details: Homo sapiens
[22] = Luminescence Cell-Based Dose Confirmation HTS to Identify Inhibitors of Platelet Dense Granule Release. [Related pubchem assays: 1663 (Primary HTS), 1678 (Summary of Project)]; format: functional
[23] = target: T2, Sentrin-specific protease 8 (Homo sapiens, UniProt Q96LD8); format: functional;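 note: luminescence read-out of SENP8 inhibition, dose-response confirmation following an ultra-high-throughput screen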
T2 sequence (Q96LD8 whole entry): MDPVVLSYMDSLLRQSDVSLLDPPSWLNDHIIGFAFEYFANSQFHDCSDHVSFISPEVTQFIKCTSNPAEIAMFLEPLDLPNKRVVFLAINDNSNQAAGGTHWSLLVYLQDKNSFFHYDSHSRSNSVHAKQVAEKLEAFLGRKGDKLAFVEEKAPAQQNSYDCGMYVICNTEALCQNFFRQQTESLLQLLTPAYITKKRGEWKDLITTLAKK

[24] = target: T3, Sentrin-specific protease 7 (Homo sapiens, UniProt Q9BQF6); format: functional;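 note: Luminescence-based dose-response confirmation of ultra-high-throughput screening hits, measuring inhibition of SENP7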
T3 sequence (Q9BQF6 whole entry): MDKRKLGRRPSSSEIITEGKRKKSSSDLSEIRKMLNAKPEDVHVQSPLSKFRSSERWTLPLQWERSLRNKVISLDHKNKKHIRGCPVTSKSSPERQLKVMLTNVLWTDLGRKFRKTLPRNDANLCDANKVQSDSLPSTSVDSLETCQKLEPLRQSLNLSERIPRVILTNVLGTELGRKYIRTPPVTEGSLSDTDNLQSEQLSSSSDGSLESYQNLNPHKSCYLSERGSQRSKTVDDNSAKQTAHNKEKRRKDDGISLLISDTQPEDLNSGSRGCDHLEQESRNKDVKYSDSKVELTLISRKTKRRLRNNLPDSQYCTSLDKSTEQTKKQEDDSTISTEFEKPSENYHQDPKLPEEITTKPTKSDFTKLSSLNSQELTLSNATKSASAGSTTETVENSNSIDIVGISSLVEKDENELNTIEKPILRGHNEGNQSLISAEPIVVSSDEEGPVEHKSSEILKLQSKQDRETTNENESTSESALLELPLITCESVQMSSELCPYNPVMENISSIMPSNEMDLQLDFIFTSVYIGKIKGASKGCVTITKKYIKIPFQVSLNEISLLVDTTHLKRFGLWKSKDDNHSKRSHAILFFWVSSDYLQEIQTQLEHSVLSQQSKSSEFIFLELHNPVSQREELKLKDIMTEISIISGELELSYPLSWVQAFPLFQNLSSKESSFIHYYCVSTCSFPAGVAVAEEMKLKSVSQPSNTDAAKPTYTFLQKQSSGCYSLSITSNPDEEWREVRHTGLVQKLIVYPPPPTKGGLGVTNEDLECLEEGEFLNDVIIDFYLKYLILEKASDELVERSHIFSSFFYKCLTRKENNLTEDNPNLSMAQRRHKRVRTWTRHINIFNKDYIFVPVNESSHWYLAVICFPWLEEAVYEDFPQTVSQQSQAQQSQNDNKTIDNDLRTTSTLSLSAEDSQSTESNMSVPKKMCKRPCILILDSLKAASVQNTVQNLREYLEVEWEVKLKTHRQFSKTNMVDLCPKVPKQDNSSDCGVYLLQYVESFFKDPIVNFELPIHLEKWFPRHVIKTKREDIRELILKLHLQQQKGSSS

[25] = target: T4, Sentrin-specific protease 6 (Homo sapiens, UniProt Q9GZR1); format: functional;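 note: Luminescence-based dose-response confirmatory assay of SENP6 inhibition, following up an ultra-high-throughput screen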
T4 sequence (Q9GZR1 whole entry): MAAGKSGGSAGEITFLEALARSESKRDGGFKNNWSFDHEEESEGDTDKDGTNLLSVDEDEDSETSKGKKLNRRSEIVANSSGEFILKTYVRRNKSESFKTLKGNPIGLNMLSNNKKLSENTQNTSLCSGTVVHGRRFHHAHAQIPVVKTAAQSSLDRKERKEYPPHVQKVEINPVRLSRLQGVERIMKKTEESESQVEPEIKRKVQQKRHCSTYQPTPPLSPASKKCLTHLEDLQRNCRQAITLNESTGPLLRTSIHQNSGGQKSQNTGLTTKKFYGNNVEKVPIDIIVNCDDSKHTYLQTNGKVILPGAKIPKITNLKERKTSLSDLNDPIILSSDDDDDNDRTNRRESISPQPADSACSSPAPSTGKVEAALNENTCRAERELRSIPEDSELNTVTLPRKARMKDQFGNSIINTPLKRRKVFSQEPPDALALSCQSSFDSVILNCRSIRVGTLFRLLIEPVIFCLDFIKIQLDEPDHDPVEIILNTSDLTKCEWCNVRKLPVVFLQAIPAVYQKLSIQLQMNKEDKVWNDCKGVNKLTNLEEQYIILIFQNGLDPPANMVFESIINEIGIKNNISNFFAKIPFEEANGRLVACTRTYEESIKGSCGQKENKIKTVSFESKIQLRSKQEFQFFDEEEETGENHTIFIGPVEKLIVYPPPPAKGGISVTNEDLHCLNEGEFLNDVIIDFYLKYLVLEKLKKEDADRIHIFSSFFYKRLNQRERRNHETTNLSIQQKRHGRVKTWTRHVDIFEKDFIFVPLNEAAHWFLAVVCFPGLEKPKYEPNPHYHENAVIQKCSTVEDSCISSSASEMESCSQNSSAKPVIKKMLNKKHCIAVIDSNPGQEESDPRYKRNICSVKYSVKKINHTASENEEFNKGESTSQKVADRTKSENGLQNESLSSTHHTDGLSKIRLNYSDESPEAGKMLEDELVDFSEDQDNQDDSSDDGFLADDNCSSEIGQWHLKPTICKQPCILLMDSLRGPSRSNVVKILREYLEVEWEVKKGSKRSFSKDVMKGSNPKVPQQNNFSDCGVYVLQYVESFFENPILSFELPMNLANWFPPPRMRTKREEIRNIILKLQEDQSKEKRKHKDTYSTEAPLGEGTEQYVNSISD

[26] = tested on: BJ; experiment: cells; format: functional, cell-based; details: Homo sapiens
[27] = HepG2 cell cytotoxicity, dose response, cytotoxicity control, ATP luminescence, cherry-pick, activator set 2 (AID 1053143); format: functional, cell-based
[28] = TRPM1 promoter luciferase reporter signal decrease, dose response, MITF inhibitor project, cell-based, SK-MEL-5, dry powder, set 8 (AID 624430); format: functional
[29] = MITF: Counter assay: A375 proliferation Measured in Cell-Based System Using Plate Reader - 2084-03_Inhibitor_Dose_DryPowder_Activity_Set8.; format: functional; details: A-375
[30] = MITF Orthogonal Assay: SK-MEL-5 CTG Assay Measured in Cell-Based System Using Plate Reader - 2084-02_Inhibitor_Dose_DryPowder_Activity_Set7.; format: functional
[31] = target: Protein disulfide-isomerase (Homo sapiens, UniProt P07237); experiment: PDI inhibitors, insulin turbidity readout, confirmation, biochemical, dry powder samples, set 2 (AID 652146)
[32] = HeLa cell cytotoxicity, dose response, cytotoxicity control, ATP luminescence, dry powder (AID 652117); format: functional, cell-based
[33] = T. cruzi growth inhibition in host cells, dose response, cell-based, plate reader, dry powder, set 2 (AID 652275); format: functional
[34] = target: Caspase-6 (Homo sapiens, UniProt P55212); experiment: human caspase-6 inhibitors, dose response, biochemical, VEID-R110 fluorescence, cherry-pick (AID 720632)
[35] = target: Caspase-8 (Homo sapiens, UniProt Q14790); experiment: caspase-8 inhibition counter-screen, dose response, selectivity assay for caspase-6 inhibitor project, biochemical, Z-IETD-R110 fluorescence, cherry-picked samples (AID 743294)
[36] = target: Protein Tat (Human immunodeficiency virus type 1 group M subtype B (isolate HXB2)(HIV-1), UniProt P04608); format: functional;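 note: tat binding to TAR RNA read out by fluorescence polarization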
[37] = target: Caspase-7 (Homo sapiens, UniProt P55210); experiment: human caspase-7 inhibitors, dose response, selectivity assay for caspase-6 inhibitor project, biochemical, DEVD-R110 fluorescence, cherry-pick (AID 743295)
[38] = THP-1 cell cytotoxicity, dose response, cytotoxicity control for Vif-APOBEC3G degradation inhibitor project, THP-1 cells (AID 1117359); format: functional; details: Human immunodeficiency virus 1, THP-1

Sequence of Paired box protein Pax-8 (Q06710 whole entry): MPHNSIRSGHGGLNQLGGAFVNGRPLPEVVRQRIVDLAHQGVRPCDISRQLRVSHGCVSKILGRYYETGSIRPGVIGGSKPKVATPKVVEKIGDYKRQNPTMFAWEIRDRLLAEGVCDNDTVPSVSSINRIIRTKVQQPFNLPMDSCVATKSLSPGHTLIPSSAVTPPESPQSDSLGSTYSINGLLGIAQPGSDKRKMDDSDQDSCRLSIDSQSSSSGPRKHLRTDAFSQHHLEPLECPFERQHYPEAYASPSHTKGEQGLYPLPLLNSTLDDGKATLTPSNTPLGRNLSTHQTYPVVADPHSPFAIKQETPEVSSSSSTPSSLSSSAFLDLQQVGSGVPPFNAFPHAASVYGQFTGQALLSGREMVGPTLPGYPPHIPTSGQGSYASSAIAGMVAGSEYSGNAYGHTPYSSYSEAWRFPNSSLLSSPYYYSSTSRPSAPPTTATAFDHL
Sequence of Luciferin 4-monooxygenase (P08659 whole entry): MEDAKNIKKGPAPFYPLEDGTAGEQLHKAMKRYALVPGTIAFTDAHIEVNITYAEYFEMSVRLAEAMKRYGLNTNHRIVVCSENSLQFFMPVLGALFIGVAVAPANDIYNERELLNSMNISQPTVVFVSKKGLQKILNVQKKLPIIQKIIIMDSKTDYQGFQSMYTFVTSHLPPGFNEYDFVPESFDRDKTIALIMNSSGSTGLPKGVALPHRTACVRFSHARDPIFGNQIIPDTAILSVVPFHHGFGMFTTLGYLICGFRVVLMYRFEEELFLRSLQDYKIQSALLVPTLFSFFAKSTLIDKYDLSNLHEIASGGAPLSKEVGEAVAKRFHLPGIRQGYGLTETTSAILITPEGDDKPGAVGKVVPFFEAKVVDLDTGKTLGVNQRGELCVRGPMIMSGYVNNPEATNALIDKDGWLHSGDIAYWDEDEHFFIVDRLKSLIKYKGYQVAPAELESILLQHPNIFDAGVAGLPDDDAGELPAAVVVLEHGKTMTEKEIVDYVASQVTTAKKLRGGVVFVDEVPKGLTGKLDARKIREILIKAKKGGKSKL
Sequence of Caspase-8 (Q14790 217-374 limits assumed): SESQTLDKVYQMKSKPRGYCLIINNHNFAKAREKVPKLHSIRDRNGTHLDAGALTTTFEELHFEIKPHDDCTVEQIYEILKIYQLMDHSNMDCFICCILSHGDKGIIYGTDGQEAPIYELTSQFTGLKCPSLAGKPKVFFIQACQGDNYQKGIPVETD
Sequence of Caspase-8 (Q14790 385-479 limits assumed): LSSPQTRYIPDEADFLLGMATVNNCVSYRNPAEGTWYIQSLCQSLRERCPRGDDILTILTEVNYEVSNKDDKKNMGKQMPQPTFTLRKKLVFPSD
Sequence of Disintegrin and metalloproteinase domain-containing protein 17 (P78536 whole entry, the tested form may be a part): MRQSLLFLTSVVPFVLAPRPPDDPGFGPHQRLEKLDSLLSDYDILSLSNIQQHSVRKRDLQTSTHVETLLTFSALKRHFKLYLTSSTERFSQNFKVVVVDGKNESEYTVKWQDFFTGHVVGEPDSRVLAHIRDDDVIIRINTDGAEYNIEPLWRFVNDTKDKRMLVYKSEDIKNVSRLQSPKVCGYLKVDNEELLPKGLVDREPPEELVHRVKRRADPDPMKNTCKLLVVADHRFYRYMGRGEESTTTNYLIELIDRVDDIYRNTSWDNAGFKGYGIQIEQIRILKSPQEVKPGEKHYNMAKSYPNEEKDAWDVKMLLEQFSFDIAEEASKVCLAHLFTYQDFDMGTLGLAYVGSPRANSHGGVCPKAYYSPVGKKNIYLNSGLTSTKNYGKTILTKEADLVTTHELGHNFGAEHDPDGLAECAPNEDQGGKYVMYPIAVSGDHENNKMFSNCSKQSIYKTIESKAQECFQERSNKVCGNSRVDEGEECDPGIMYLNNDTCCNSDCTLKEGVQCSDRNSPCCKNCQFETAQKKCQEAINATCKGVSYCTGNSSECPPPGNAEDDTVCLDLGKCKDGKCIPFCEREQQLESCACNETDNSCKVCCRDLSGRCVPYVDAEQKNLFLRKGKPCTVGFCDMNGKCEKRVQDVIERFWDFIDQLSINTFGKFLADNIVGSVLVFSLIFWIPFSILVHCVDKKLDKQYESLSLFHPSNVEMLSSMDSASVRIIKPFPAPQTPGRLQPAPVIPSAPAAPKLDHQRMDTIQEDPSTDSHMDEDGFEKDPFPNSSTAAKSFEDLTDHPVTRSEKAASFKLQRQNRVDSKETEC
Sequence of Caspase-7 (P55210 24-198 limits assumed): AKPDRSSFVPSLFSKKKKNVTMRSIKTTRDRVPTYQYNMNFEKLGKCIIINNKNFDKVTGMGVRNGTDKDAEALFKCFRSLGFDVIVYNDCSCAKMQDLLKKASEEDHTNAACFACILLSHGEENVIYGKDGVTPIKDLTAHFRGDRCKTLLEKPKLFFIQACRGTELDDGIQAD
Sequence of Caspase-7 (P55210 207-303 limits assumed): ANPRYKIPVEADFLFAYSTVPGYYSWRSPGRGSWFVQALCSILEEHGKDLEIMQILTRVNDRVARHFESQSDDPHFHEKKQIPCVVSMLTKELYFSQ
Sequence of Protein Tat (P04608 whole entry): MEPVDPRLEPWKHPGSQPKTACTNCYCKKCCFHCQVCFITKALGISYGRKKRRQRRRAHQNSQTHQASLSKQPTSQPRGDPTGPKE
Sequence of Caspase-6 (P55212 24-179 limits assumed): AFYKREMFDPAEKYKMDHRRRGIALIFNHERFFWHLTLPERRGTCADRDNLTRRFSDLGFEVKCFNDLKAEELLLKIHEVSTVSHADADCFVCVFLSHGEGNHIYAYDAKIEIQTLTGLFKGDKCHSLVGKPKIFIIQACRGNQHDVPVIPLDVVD
Sequence of Caspase-6 (P55212 194-293 limits assumed): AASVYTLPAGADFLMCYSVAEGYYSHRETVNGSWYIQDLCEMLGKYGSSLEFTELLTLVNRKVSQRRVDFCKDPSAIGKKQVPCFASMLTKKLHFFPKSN
Sequence of Protein disulfide-isomerase (P07237 whole entry): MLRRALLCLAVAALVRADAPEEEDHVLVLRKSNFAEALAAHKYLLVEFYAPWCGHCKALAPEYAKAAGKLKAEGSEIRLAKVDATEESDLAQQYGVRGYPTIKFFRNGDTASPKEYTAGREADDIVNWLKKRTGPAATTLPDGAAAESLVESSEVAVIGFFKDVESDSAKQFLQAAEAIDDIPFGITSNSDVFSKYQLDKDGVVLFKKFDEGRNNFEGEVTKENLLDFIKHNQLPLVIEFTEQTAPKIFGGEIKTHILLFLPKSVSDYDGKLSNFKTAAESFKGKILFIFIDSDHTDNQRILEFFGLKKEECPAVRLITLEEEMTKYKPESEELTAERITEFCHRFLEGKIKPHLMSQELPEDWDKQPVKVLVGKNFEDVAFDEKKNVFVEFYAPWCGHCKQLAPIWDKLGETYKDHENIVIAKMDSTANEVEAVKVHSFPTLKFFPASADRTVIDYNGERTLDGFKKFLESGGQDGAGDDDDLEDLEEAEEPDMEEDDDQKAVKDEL

CN1C(=O)c2cc(NC(=O)c3cccs3)ccc2OC[C@H]2O[C@@H](CC(=O)N3CCCCC3)CC[C@H]21
AC50 [1]: 9.9 µM (active)

COc1ccc(S(=O)(=O)N2CCC(c3cc(-c4cccc5ccccc45)[nH]n3)CC2)cc1
IC50 [2]: > 69.5 µM (inactive) | EC50 [3]: > 350 µM (not active) | EC50 [4]: > 350 µM (not active) | IC50 [5]: > 69.5 µM (inactive)

CNC[C@@H]1Oc2cc(C#CC3CCCCC3)ccc2S(=O)(=O)N([C@@H](C)CO)C[C@@H]1C
AC50 [6]: 19.4 µM (active) | AC50 [7]: 1.39 µM (active) | AC50 [8]: 25.3 µM (active)

C[C@H]1CCCCO[C@H](CN(C)C(=O)Nc2cccc3ccccc23)[C@@H](C)CN([C@@H](C)CO)C(=O)c2cc(NS(=O)(=O)c3cn(C)cn3)ccc2O1
AC50 [9]: 47 µM (active)

C[C@H]1CCCCO[C@H](CN(C)C(=O)c2ccccc2)[C@@H](C)CN([C@@H](C)CO)C(=O)c2cc(NC(=O)Nc3ccc(C(F)(F)F)cc3)ccc2O1
AC50 [10]: 30.1 µM (active) | AC50 [11]: 29.5 µM (active) | AC50 [12]: 47.8 µM (active) | AC50 [8]: 9.48 µM (active) | AC50 [13]: 37.6 µM (active)

CCN(CC)c1ccc(/C=N/NC(=O)c2ccoc2C)c(O)c1
IC50 [14]: 0.942 µM (active) | EC50 [15]: 6.96 µM (active) | AC50 [16]: 0.622 µM (active) | EC50 [17]: 15.6 µM (active) | EC50 [18]: 3.59 µM (active) | EC50 [19]: 0.785 µM (active) | EC50 [20]: 0.83 µM (active) | EC50 [21]: 3.02 µM (active) | EC50 [3]: 51.7 µM (active) | EC50 [22]: 2.06 µM (active) | IC50 [23]: 1.33 µM (active) | IC50 [24]: 0.757 µM (active) | IC50 [25]: 0.849 µM (active) | EC50 [4]: 7.38 µM (active) | EC50 [26]: 6.42 µM (active) | AC50 [27]: 9.01 µM (active)

O=C1C(Nc2cccc(Cl)c2)=C(N2CCCCC2)C(=O)c2ccccc21
AC50 [28]: 3.46 µM (active) | AC50 [29]: 50.1 µM (active) | AC50 [30]: 15.7 µM (active)

CCOC(=O)C1(CCOc2ccccc2)CCN(Cc2cccc(Cl)c2)CC1
AC50 [31]: > 30 µM (inactive) | AC50 [32]: 32.3 µM (active)

CC(C)N1CC2(CN(Cc3ccccc3Cl)C2)Oc2c(NC(=O)c3ccncc3)cccc2C1=O
AC50 [33]: 0.463 µM (active)

O=C(c1cccc(-n2cccc2)c1)N1CCN(S(=O)(=O)c2ccccc2)CC1
AC50 [34]: 0.433 µM (active) | AC50 [35]: 28.1 µM (active) | IC50 [36]: > 100 µM (active) | AC50 [37]: > 70 µM (inactive) | CC50 [38]: > 40 µM (active)
